Data on 2 compounds can be found in publication PMC8329300, “X-ray crystallography reveals molecular recognition mechanism for sugar binding in a melibiose transporter MelB” (Communications Biology, 2021).

One assay addresses T1, D59C MelBSt (Salmonella typhimurium, UniProt P30878, D59C).
T1 construct: Cys scanning mutagenesis for the full-length MelBSt; His10 (C); made in house; host or cells: E. coli DW2
The experiment in a line: Melibiose fermentation on MacConkey agar (DW2 transformants). Type of assay: cell-based. To be noted: 30 mM melibiose, 37 °C. Here is the method:
(§1) Fig. 1 Functional characterizations. a [^3H] Melibiose transport time course with intact cells. E. coli DW2 strain (melB^−, lacZ^−Y^−) expressed with the WT, D59C, or D59A MelBSt mutants were subjected to [^3H]melibiose active transport assay at 0.4 mM and 10 mCi/mmol in the presence of 20 mM or 100 mM NaCl or LiCl by a fast filtration method. Inset, melibiose fermentation assay. Transformants with DW2 strain were plated on MacConkey agar plates containing 30 mM melibiose as the sole carbohydrate source and pH sensor neutral red, and incubated at 37 °C for 16–18 h before imaging. Number of tests = 3, from different batch of cells or duplicate measurements from same batch of sample. b Ligand binding by Trp→dansyl galactoside (D^2G) FRET assay. Purified proteins at 1 μM concentration in 20 mM Tris-HCl, pH 7.5, 100 mM CholCl, 10% glycerol, and 0.03% UDM were subjected to steady-state fluorescence measurements as described in Methods. On the time-trace, 1.8 μL of 1 mM D^2G at 10 μM was added into 180 μL of protein solutions at 1-min point, followed by supplying 10 μL of 5 mM DDMB or 5 mM α-NPG to displace the bound D^2G. For testing Na^+ or Li^+ binding, they are added into the solution before displacement with the second sugar. The structure of DDMB or α-NPG is shown in a chair form, and the carbon positions are labeled. Glycosidic bonds are indicated by arrows. […]

The next assay has as its target T2, D59A MelBSt (Salmonella typhimurium, UniProt P30878, D59A).
T2 construct: Cys scanning mutagenesis for the full-length MelBSt; His10 (C); made in house; host or cells: E. coli DW2
The experiment in a line: Trp→dansyl galactoside (D2G) FRET time trace (D59A). The settings on record: no Na+ or Li+ stimulation. Type of assay: binding. The method, then: as §1, with “Methods.” for “Methods. On the time-trace, 1.8 μL of 1 mM D^2G at 10 μM was added into 180 μL of protein solutions at 1-min point, followed by supplying 10 μL of 5 mM DDMB or 5 mM α-NPG to displace the bound D^2G. For testing Na^+ or Li^+ binding, they are added into the solution before displacement with the second sugar. The structure of DDMB or α-NPG is shown in a chair form, and the carbon positions are labeled. Glycosidic bonds are indicated by arrows.”
Steady-state fluorescence measurements were performed with an AMINCO-Bowman series 2 spectrometer with purified MelBSt at 1 μM in 20 mM Tris-HCl, pH 7.5, 100 mM CholCl, 10% glycerol, 0.03% UDM. Using an excitation wavelength at 290 nm, the emission intensity was recorded at 490 nm. […]

T2 sequence (P30878 whole entry D59A): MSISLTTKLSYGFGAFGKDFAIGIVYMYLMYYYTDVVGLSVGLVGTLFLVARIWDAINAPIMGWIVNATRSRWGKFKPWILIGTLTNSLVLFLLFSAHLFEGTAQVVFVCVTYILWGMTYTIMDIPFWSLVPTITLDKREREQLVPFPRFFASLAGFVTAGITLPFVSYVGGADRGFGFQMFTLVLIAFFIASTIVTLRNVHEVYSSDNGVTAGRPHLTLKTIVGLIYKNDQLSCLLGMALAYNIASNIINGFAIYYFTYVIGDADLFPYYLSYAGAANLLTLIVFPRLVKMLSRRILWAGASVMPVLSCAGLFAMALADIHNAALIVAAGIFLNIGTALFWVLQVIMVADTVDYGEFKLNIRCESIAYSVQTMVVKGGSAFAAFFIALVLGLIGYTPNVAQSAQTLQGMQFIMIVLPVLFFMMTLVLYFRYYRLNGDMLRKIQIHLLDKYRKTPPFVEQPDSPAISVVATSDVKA
T1 sequence (P30878 whole entry D59C): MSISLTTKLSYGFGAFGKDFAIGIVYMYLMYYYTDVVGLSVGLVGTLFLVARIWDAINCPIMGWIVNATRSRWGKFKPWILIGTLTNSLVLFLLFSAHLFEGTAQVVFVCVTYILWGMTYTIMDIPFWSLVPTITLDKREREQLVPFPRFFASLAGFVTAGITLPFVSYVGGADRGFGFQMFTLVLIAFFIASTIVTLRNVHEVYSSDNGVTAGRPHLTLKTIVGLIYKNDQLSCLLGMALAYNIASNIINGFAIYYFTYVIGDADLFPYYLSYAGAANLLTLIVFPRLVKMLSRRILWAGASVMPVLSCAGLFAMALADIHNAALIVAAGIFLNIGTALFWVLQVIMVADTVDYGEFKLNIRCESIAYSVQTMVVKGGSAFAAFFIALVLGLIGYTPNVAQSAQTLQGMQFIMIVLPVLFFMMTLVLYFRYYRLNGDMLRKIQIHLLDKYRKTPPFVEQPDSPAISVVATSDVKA

As for `OC[C@H]1O[C@H](OCC2O[C@@H](O)[C@H](O)[C@@H](O)[C@@H]2O)[C@H](O)[C@@H](O)[C@H]1O` (some centres unmarked) [Melibiose], at D59C MelBSt, the “melibiose fermentation (colony colour)” value is recorded as “normal melibiose fermentation with red colonies”.

As for `O=[N+]([O-])c1ccc(OC2OC(CO)C(O)C(O)C2O)cc1` [α-NPG, 4-nitrophenyl-α-D-galactopyranoside], the “ligand binding by Trp→D2G FRET” value at D59A MelBSt is “binds”.
